Results from patent publication US10463664B2, “Inhibitors of HSV nucleotidyl transferases and uses therefor” (Saint Louis University, priority 2013, dated 2019).

Legend:
HSV-1 [1] = assay: Anti-HSV-1 replication assay in Vero cells, titer by plaque assay; assay type: cell-based, herpes simplex virus 1; conditions: for Anti-HSV-1 Log10 suppression 5 μM / Anti-HSV-1 Log10 suppression 50 μM: moi 0.1, 24 h, relative to DMSO; for Anti-HSV-1 Log10 suppression 5 μM (screening symbol) / Anti-HSV-1 Log10 suppression 50 μM (screening symbol): visual inspection; for Inhibition of HSV-1 replication (in words): primary screening
Protocol: (§1) Anti-HSV-1 and -HSV-2 Replication Assay. Compounds to be screened were diluted in PBS supplemented to contain 2% newborn calf serum and 1% glutamine, and added in 100 μL, volume to confluent cell monolayers in 24-well cluster plates. Immediately thereafter HSV-1 and HSV-2, diluted in the supplemented PBS medium, were added to the wells in 50 μl volume such that the final concentration of compound was 50 μM and 5 μM and the multiplicity of infection was 0.1. The plates were incubated at 37° C. for 1 hour and then virus-containing inoculum was removed and the wells were washed once in PBS. Compounds, diluted to 50 μM and 5 μM in DMEM supplemented to contain 2% newborn calf serum and 1% each penicillin/streptomycin, were added at 0.5 mL/well. Plates were incubated at 37° C. an additional 23 hr, and then the plates were visually inspected through a phase contrast microscope for cytopathic effect, and for toxic effect. […] The entire contents of each well were collected by scraping. Samples were frozen at −80° C., and then subsequently thawed, sonicated, and infectious virus titer was determined by standard plaque assay on Vero cell monolayers. Because the compounds were dissolved at 10 mM in 100% DMSO, equivalent dilutions of DMSO were added to additional wells as a control for effects of the diluent. Each experiment was repeated once. EC50 values were determined as above except that serial dilutions of the compound to be tested were prepared starting at 50 μM. The inhibitory values were calculated by non-linear curve-fitting in GraphPad Prism.
(§2) Monolayers were microscopically inspected 24 hours post-infection and wells in which more cells were visually healthier than the DMSO-treated controls were collected. Viral titers in the culture lysates were then determined by standard plaque assay on Vero cells. Inhibition of viral replication was categorized as <1 log10 relative to the DMSO-treated control, 1 to 3 log10 suppression, or ≥3 log10 suppression. […] Additionally, four polyoxygenated heterocycle compounds were tested (#128, 138, 139, 140).

HSV-2 [2] = assay: Anti-HSV-2 replication assay in Vero cells, titer by plaque assay; assay type: cell-based, herpes simplex virus 2; conditions: for Anti-HSV-2 Log10 suppression 5 μM / Anti-HSV-2 Log10 suppression 50 μM: moi 0.1, 24 h, relative to DMSO; for Anti-HSV-2 Log10 suppression 5 μM (screening symbol) / Anti-HSV-2 Log10 suppression 50 μM (screening symbol): visual inspection; for Inhibition of HSV-2 replication (in words): primary screening
Protocol: as §1, §2

HBV RNaseH = molecular target: T1, HBV RNaseH (Hepatitis B virus genotype A2 subtype adw2, UniProt P03159); assay: Biochemical inhibition of HBV RNaseH (oligonucleotide-directed RNA cleavage assay); conditions: compounds at 60, 20 or 10 μM
T1 construct: One of the inventors recently produced active recombinant HBV RNase H; hexahistidine; made in house; host or cells: E. coli
T1 sequence (P03159 693-845): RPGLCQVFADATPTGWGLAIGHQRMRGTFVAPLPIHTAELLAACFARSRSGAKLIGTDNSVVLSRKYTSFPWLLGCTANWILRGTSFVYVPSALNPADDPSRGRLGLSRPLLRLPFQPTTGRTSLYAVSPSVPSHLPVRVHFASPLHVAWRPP
Protocol: (§3) Biochemical inhibition of HBV RNaseH and human RNaseH1 activity. […] RNaseH activity was measured using an oligonucleotide-directed RNA cleavage assay in which a DNA oligonucleotide is annealed to an internally ^32P-labeled RNA, the RNA:DNA heteroduplex is incubated with the enzyme to permit cleavage, and then the RNA cleavage products are resolved by electrophoresis and detected by autoradiography. The compounds were included in the reaction mixes at 60, 20, or 10 μM and the amount of the RNA cleavage products in the compound-containing reactions was compared to reactions in which an equivalent concentration of DMSO was added as a vehicle control. The data were quantified using ImageJ.

human RNaseH1 = molecular target: T2, human RNaseH1 (Homo sapiens, UniProt O60930); assay: Biochemical inhibition of human RNaseH1 (oligonucleotide-directed RNA cleavage assay); conditions: compounds at 60, 20 or 10 μM
T2 construct: hexahistidine; made in house; host or cells: E. coli
T2 sequence (O60930 1-286): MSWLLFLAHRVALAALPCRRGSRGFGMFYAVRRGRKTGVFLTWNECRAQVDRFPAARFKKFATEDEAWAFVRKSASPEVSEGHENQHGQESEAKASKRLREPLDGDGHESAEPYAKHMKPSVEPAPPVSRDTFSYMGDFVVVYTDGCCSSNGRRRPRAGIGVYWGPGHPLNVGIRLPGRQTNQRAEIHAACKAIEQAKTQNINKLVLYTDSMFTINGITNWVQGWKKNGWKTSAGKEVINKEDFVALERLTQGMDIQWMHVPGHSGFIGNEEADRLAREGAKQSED
Protocol: as §3

HSV-1 [3] = assay: HSV-1 replication inhibition in primary human foreskin fibroblasts; assay type: cell-based, herpes simplex virus 1; conditions: HFF cells, relative to DMSO-treated control
Protocol: as §1
(§4) Inhibition of viral replication was next assessed in human foreskin fibroblasts (HFF) to determine whether NTS inhibitors could block HSV-1 and HSV-2 replication in a physiologically relevant, primary human cell type. […] Viral yields 24 hours post-infection were measured by plaque assay.

HSV-2 [4] = assay: HSV-2 replication inhibition in primary human foreskin fibroblasts; assay type: cell-based, herpes simplex virus 2; conditions: HFF cells, relative to DMSO-treated control
Protocol: as §1, §4

[5] = test system: primary human foreskin fibroblasts; assay: in vitro
Protocol: Toxicity Assays. Qualitative assessments of cytotoxicity were done visually by inspecting the cells in the primary screening assays. For the quantitative assays, cells were plated in 96-well plates at 1.0×10^4 per well. The next day the compounds were added at 0.78 to 100 μM in a final concentration of 1% (v/v) DMSO, and the cells were incubated for 24 hours under conditions identical to those employed for the viral replication inhibition assays. Mitochondrial toxicity was measured by incubating the cells with 0.25 mg/mL thiazolyl blue tetrazolium bromide (MTT, SigmaAldrich Chemical Co.), the cultures were incubated for 60 min, metabolites were solubilized in acidic isopropanol, and absorbance was read at 570 nm. Cellular lysis was measured by detecting release of intracellular proteases with the CytoTox-Glo assay (Promega) according to the manufacturer's instructions. Percent viability was determined for each compound concentration from the maximal absorbance or luminosity data, and then CC50 values were calculated by non-linear curve fitting using GraphPad Prism.
as §4

| SMILES | Anti-HSV-1 Log10 suppression 5 μM (HSV-1 [1]) [log10] | Anti-HSV-1 Log10 suppression 50 μM (HSV-1 [1]) [log10] | Anti-HSV-2 Log10 suppression 5 μM (HSV-2 [2]) [log10] | Anti-HSV-2 Log10 suppression 50 μM (HSV-2 [2]) [log10] | Anti-HBV RNaseH (HBV RNaseH) | Anti-Human RNaseH1 (human RNaseH1) | Anti-HSV-1 Log10 suppression 5 μM (screening symbol) (HSV-1 [1]) | Anti-HSV-1 Log10 suppression 50 μM (screening symbol) (HSV-1 [1]) | Anti-HSV-2 Log10 suppression 5 μM (screening symbol) (HSV-2 [2]) | Anti-HSV-2 Log10 suppression 50 μM (screening symbol) (HSV-2 [2]) | Inhibition of HSV-1 replication (in words) (HSV-1 [1]) | Inhibition of HSV-2 replication (in words) (HSV-2 [2]) | Replication inhibition HSV-1 5 μM (HSV-1 [3]; 5 μM) [log10] | Replication inhibition HSV-1 50 μM (HSV-1 [3]; 50 μM) [log10] | Replication inhibition HSV-2 5 μM (HSV-2 [4]; 5 μM) [log10] | Replication inhibition HSV-2 50 μM (HSV-2 [4]; 50 μM) [log10] | CC50 [5] [µM] |
| --- | --- | --- | --- | --- | --- | --- | --- | --- | --- | --- | --- | --- | --- | --- | --- | --- | --- |
| O=c1c(O)c(-c2ccc(O)c(O)c2)oc2cc(O)c(O)c(O)c12 [Compound 7] | 0.44 | 0.48 | 0.03 | 1.26 | − (no inhibition at 60 μM) | +++ (inhibition at 10 μM) |  |  |  |  |  |  |  |  |  |  |  |
| O=c1cc2oc3cc(O)c(O)cc3c(-c3ccccn3)c-2cc1O [Compound 39] | 0.19 | 0.22 | 0.12 | 0.17 | +++ (inhibition at 10 μM) | +++ (inhibition at 10 μM) |  |  |  |  |  |  |  |  |  |  |  |
| Cc1cc(C)n(O)c(=O)c1C#N [Compound 44] |  |  |  |  | − (no inhibition at 60 μM) | − (no inhibition at 60 μM) | − | − | − | − |  |  |  |  |  |  |  |
| Cc1cc(=O)oc2cc(O)c(O)cc12 [Compound 34] | 0.08 | 2.64 | −0.07 | 3.29 | ++ (inhibition at 20 μM) | − (no inhibition at 60 μM) |  |  |  |  |  |  |  |  |  |  |  |
| O=c1c(O)c(-c2cc(O)c(O)c(O)c2)oc2cc(O)cc(O)c12 [Compound 9] | 0.30 | 0.38 | −0.04 | 0.67 | ++ (inhibition at 20 μM) | ++ (inhibition at 20 μM) |  |  |  |  |  |  |  |  |  |  |  |
| O=C1c2cccc3cccc(c23)C(=O)N1O [Compound 45] |  |  |  |  | − (no inhibition at 60 μM) | − (no inhibition at 60 μM) | − | − | − | − |  |  |  |  |  |  |  |
| CN(C)c1ccc(-c2c3cc(O)c(=O)cc-3oc3cc(O)c(O)cc23)cc1 [Compound 35] |  |  |  |  | +++ (inhibition at 10 μM) | +++ (inhibition at 10 μM) | − | − | − | − |  |  |  |  |  |  |  |
| Nc1ccn(C[C@@H](CO)OCP(=O)(O)O)c(=O)n1 [CID, Cidofovir, reference compound] | 0.77 | 2.67 | 0.38 | 1.19 |  | − (no inhibition at 60 μM) |  |  |  |  | negligible | negligible |  |  |  |  |  |
| CC(C)c1ccc(O)c(=O)cc1 [Compound 48, Gamma-thujaplicin] | 0.31 | 4.71 | 0.20 | 4.57 | − (no inhibition at 60 μM) | − (no inhibition at 60 μM) |  |  |  |  | negligible inhibitors | negligible inhibitors | 0.05 | 5.99 | 0.20 | 5.76 | > 100 |
| CCOC(=O)c1cc2ccccc2n(O)c1=O [Compound 42] |  |  |  |  | − (no inhibition at 60 μM) | + (inhibition at 60 μM) | − | − | − | − |  |  |  |  |  |  |  |
| Cc1c2cc(O)c(=O)cc-2oc2cc(O)c(O)cc12 [Compound 8] | −0.18 | 0.86 | 0.18 | 2.49 | ++ (inhibition at 20 μM) | +++ (inhibition at 10 μM) |  |  |  |  |  |  |  |  |  |  |  |
| O=c1ccc2ccccc2n1O [Compound 43] | 0.31 | 1.31 | 0.31 | 1.13 | − (no inhibition at 60 μM) | − (no inhibition at 60 μM) |  |  |  |  |  |  |  |  |  |  |  |
| Cc1nnc(C(=O)NC(C)(C)c2nc(C(=O)NCc3ccc(F)cc3)c(O)c(=O)n2C)o1 [Compound 11, Raltegravir, reference compound] | 0.2 | 0.37 | 0.25 | 0.35 | − (no inhibition at 60 μM) | − (no inhibition at 60 μM) |  |  |  |  |  |  |  |  |  |  |  |
